Assay results from patent US20180320128A1, “METHODS FOR MODULATING PRODUCTION PROFILES OF RECOMBINANT PROTEINS” (ARES TRADING S.A., priority 2015, published 2018).

Experiments:
recombinant CHO cells = details: cited from earlier work
[1] = test system: mAb1 cells (CHO-S cells expressing IgG1 mAb1); experiment: Fed-batch culture in 96 deep-well plates, constant osmolality (315 mOsm/kg), increasing sugar concentration (experimental approach 1); type: cell-based, Chinese hamster; details: for increase of High Mannose (HM) species of mAb1 with respect to control: absolute change; for cell growth with increasing sugar concentration: 0-127.5 mM; for increase of HM for mAb1 (overall conclusion): constant osmolality, concentration not given
Method: (§1) Assays were performed with two CHO cell lines: • CHO-S cells expressing IgG1 mAb1, herein “Cells mAb1” or “mAb1 cells”. “mAb1” is a fully human monoclonal antibody directed against a soluble protein. Its isoelectric point (pI) is about 8.20-8.30. • CHO-K1 cells expressing IgG1 mAb2, herein “Cells mAb2” or “mAb2 cells”. “mAb2” is a humanized monoclonal antibody directed against a receptor found on the cell membrane. Its isoelectric point (pI) is about 9.30.
(§2) Deepwell plates: Cells expressing mAb2 were inoculated at 0.2×10^6 cells per millilitre (mL), whereas cells expressing mAb1 were inoculated at 0.3×10^6 cells per mL.
(§3) All assays were performed in fed-batch culture.
(§4) A serum-free chemically defined culture medium was used. It was used as it is (o be adapted), or it was supplemented with D-(+)-Raffinose pentahydrate (Sigma-Aldrich, 83400-25G) at different concentrations (0-45 mM). The culture medium was fed, on a regular basis, with a chemically defined feed medium, as well as with glucose in order to keep said glucose level in the range of >0 to about 8 g/L.
(§5) The cultures were performed: • In deepwell plates with a working volume of 450 μL. They were incubated at 36.5° C., 5% de CO2, 90% humidity and shaken at 320 rpm. Each of the fed-batch culture lasted 14 days. • In Spin Tubes (ST) with a working volume of 30 mL (with as permable lid). They were inoculated with a cell density of 0.3*10^6 cells/mL and maintained at 36.5° C., 320 rpm, 5% CO2 and 90% humidity for 14 days.
(§6) Viable cell density and viability were measured with the Guava easyCyte® flow cytometer.
(§7) Antibody titers were measured with the fortéBIO Octet®.
(§8) Glycosylation profiles were established by capillary gel electrophoresis with laser-induced fluorescence (CGE-LIF). Groups of glycans were defined as thereafter in Table 2.
(§9) Experiment was performed to check whether high osmolality or high sugar concentration have an influence on the viability of the cells, VCD as well as on amount of High Mannose (HM) species. A chemically defined proprietary medium with lower osmolality (PM-200) compared to standard media, was used to vary sugar concentrations from 1-150 mM (green) while maintaining the osmolality of standard media (315 mOsm/kg) via supplementation with NaCl (blue), as illustrated in FIG. 1. Standard media and PM-200 differ in the composition, so the missing amounts of raw material were added (except NaCl). As sugars raffinose (a trisaccharide) and sucrose (a disaccharide) were chosen. Stock solutions (raffinose 22 mM, raffinose 220 mM, sucrose 50 mM, sucrose 1 M and NaCl 1 M) were prepared and added to the media before inoculation.
(§10) Stock solutions were prepared with media to prevent dilution. The given concentrations equal the concentrations in media before incoculation. CHO-S cells (=mAb1 cells) expressing mAb1 were expanded for 49 days, CHO-K1 (=mAb2 cells) expressing mAb2 were expanded for 28 days.

[2] = test system: mAb2 cells (CHO-K1 cells expressing IgG1 mAb2); experiment: as above; type: cell-based, Chinese hamster; details: for increase of High Mannose (HM) species of mAb2 with respect to control: absolute change; for increase of HM for mAb2 (overall conclusion): constant osmolality, concentration not given
Method: as §1, §2, §3, §4, §5, §6, §7, §8, §9, §10

[3] = test system: mAb1 cells (CHO-S cells expressing IgG1 mAb1); experiment: Fed-batch culture in Spin Tubes, constant osmolality (315 mOsm/kg), increasing raffinose concentration; type: cell-based, Chinese hamster
Method: as §1
Spintubes: Cells expressing both mAb1 and mAb2 were inoculated at 0.3×10^6 cells per mL.
as §3, §4, §5
Glycosylation profiles were established by capillary gel electrophoresis with laser-induced fluorescence (CGE-LIF). Groups of glycans were defined as thereafter in Table 2. […]
A second experiment with constant osmolality (315 mOsm/kg) and increasing raffinose concentration was performed in Spin Tubes with a working volume of 30 mL and mAb1 cells. FIG. 10a depicts VCD and viability from mAb1 cells of the experimental approach with constant osmolality and increasing raffinose concentration in Spin Tubes. […] The lowest VCD was obtained at 100 mM raffinose (10.2±0.2*10^6 cells/mL), as illustrated in FIG. 10b.

[4] = test system: mAb2 cells (CHO-K1 cells expressing IgG1 mAb2); experiment: Fed-batch culture in deep-well plates, 0 or 30 mM raffinose with increasing osmolality (experimental approach 2); type: cell-based, Chinese hamster
Method: as §1, §2, §3, §4, §5, §6, §7, §8, §10
The second experimental approach was performed with increasing osmolality and constant sugar concentrations (see table 3 and methods in example 1).

[5] = 1 mM sugar in medium, 315 mOsm/kg, 14-day culture
[6] = 5 mM sugar, 315 mOsm/kg, working day 14
[7] = 100 mM sugar, 315 mOsm/kg, working day 14
[8] = 100 mM raffinose, Spin Tubes, absolute change
[9] = 425 mOsm/kg with 30 mM raffinose
[10] = 80 mM sugar, 315 mOsm/kg, working day 14
[11] = 127.5 mM sugar, 315 mOsm/kg, working day 14
[12] = 50 mM sugar, 315 mOsm/kg, working day 14

Q: Which “cell viability at the end of the production run” value (recombinant CHO cells; batch culture, after 8 days of culture) does the source give for `CCCC(=O)[O-].[Na+]` [sodium butyrate] here?
A: The value was “less than 45%”.

Q: And the cell viability (recombinant CHO cells; perfusion batch culture, within 6 days of treatment)?
A: Its cell viability is 15%.

Q: Which results are given for `OC[C@H]1O[C@H](OC[C@H]2O[C@H](O[C@]3(CO)O[C@H](CO)[C@@H](O)[C@@H]3O)[C@H](O)[C@@H](O)[C@@H]2O)[C@H](O)[C@@H](O)[C@H]1O` [raffinose, O-α-D-Galactopyranosyl-(1→6)-α-D-g lucopyranosyl-(1→2)-β-D-fructofuranoside]?
A: maximum cell concentration (VCD) [1, 5]: 16.2±1.0 *10^6 cells/mL; cell viability [1, 6]: about 57%; absolute harvest titer ([1]; 10 mM sugar, 315 mOsm/kg, working day 14): about 2650 mg/L; increase of High Mannose (HM) species of mAb1 with respect to control ([1]; 50 mM sugar, 315 mOsm/kg): 6.8%; maximum cell concentration (VCD) ([1]; 100 mM sugar in medium, 315 mOsm/kg): 2.3±2.1 *10^6 cells/mL; specific productivity [1, 7]: about 45 pg/cell/day; product titer compared to control ([1]; 1-65 mM sugar, 315 mOsm/kg, working day 14): higher product titer than control; absolute harvest titer ([1]; 80-127.5 mM sugar, 315 mOsm/kg, working day 14): 825 to 975 mg/L; change of fucosylated species of mAb1 with increasing sugar concentration ([1]; 315 mOsm/kg): decrease; change of galactosylated, HM and non-fucosylated species of mAb1 with increasing sugar concentration ([1]; 315 mOsm/kg): increase; cell growth with increasing sugar concentration ([1]; 315 mOsm/kg): inhibited; specific productivity with increasing sugar concentration ([1]; 315 mOsm/kg, working day 14): increased; increase of HM for mAb1 (overall conclusion) [1]: 7%; maximum cell concentration (VCD) ([2]; 5 mM sugar, 315 mOsm/kg): 11.85±1.1 *10^6 cells/mL; maximum VCD (lowest of the conditions) ([2]; 80 mM sugar, 315 mOsm/kg): 6.4±1.7 *10^6 cells/mL; specific productivity ([2]; 100 mM sugar, 315 mOsm/kg): about 30 pg/cell/day; increase of High Mannose (HM) species of mAb2 with respect to control ([2]; 100 mM sugar, 315 mOsm/kg): 6.3%; harvest titer [2, 7]: about 2350 mg/L; cell growth with increasing sugar concentration ([2]; 315 mOsm/kg): reduced; change of fucosylated species of mAb2 with higher sugar concentration ([2]; 315 mOsm/kg): decrease; change of galactosylated, HM and non-fucosylated species of mAb2 with higher sugar concentration ([2]; 315 mOsm/kg): increase; increase of HM for mAb2 (overall conclusion) [2]: 6%; maximum cell concentration (VCD) ([3]; 10 mM raffinose, Spin Tubes, n=2): 17.8±0.2 *10^6 cells/mL; concentration of antibodies (harvest titer) ([3]; 10 mM raffinose, working day 14, Spin Tubes): about 2200 mg/L; increase of productivity versus control ([3]; 100 mM raffinose, Spin Tubes): about 64%; productivity per cell per day (PCD), peak ([3]; 100 mM raffinose, Spin Tubes): about 23 pg/cell/day; viability at the end of cultivation ([3]; 100 mM raffinose, Spin Tubes): about 86%; decrease of fucosylated glycans of mAb1 with respect to control [3, 8]: 15.9%; increase of Man5 of mAb1 with respect to control [3, 8]: 7.7%; maximum VCD (lowest of the conditions) ([3]; 100 mM raffinose, Spin Tubes, n=2): 10.2±0.2 *10^6 cells/mL; acid isoforms and amount of aggregates with increasing raffinose concentration ([3]; Spin Tubes, data not shown): increased; amount of alkaline isoforms with increasing raffinose concentration ([3]; Spin Tubes, data not shown): decreased; absolute change of unknown, galactosylated and sialylated glycoforms ([3]; raffinose supplementation, Spin Tubes): not affected; absolute harvest titer compared to control ([3]; supplemented raffinose (10-100 mM), Spin Tubes): higher than the control; viability at the end of the experiment ([4]; 375 mOsm/kg and 30 mM raffinose): about 59%; absolute harvest titer ([4]; 425 mOsm/kg and 30 mM raffinose, working day 14): about 1150 mg/L; increase of HM species of mAb2 with respect to control (315 mOsm/kg) [4, 9]: 8.5%; maximum VCD (lowest of the conditions) [4, 9]: 8.2±2.3 *10^6 cells/mL

Q: With `OC[C@H]1O[C@@](CO)(O[C@H]2O[C@H](CO)[C@@H](O)[C@H](O)[C@H]2O)[C@@H](O)[C@@H]1O` [sucrose, α-D-glucopyranosyl-(1→2)-β-D-fructofuranoside] as the molecule, how does the “maximum cell concentration (VCD)” value [1, 5] read?
A: Its value is 18.2±1.7 *10^6 cells/mL.

Q: And the absolute harvest titer ([1]; 1 mM sugar, 315 mOsm/kg, working day 14)?
A: Its absolute harvest titer is “about 2800 mg/L”.

Q: And the absolute harvest titer [1, 10]?
A: The absolute harvest titer was ~2550 mg/L.

Q: And the specific productivity [1, 10]?
A: The specific productivity was “about 26 pg/cell/day”.

Q: What about the “increase of High Mannose (HM) species of mAb1 with respect to control” value ([1]; 100 mM sugar, 315 mOsm/kg) of the same molecule?
A: Its value is 14.2%.

Q: What about the “maximum cell concentration (VCD)” value ([1]; 127 mM (maximum tested) sugar, 315 mOsm/kg) of the same molecule?
A: The value was 9.6±3.2 *10^6 cells/mL.

Q: And the “increase of High Mannose (HM) species of mAb1 with respect to control” value ([1]; 127.5 mM sugar, 315 mOsm/kg)?
A: Its value is 14.3%.

Q: What about the cell viability [1, 11] of the same molecule?
A: The cell viability was ~64%.

Q: What about the “change of fucosylated species of mAb1 with increasing sugar concentration” value ([1]; 315 mOsm/kg) of the same molecule?
A: Its value is “decrease”.

Q: And the “change of galactosylated, HM and non-fucosylated species of mAb1 with increasing sugar concentration” value ([1]; 315 mOsm/kg)?
A: Its value is “increase”.

Q: And the “cell growth with increasing sugar concentration” value ([1]; 315 mOsm/kg)?
A: The value was “inhibited”.

Q: And the “specific productivity with increasing sugar concentration” value ([1]; 315 mOsm/kg, working day 14)?
A: Its value is “no change”.

Q: And the “increase of HM for mAb1 (overall conclusion)” value [1]?
A: Its value is 14%.

Q: What about the absolute harvest titer [2, 6] of the same molecule?
A: Its absolute harvest titer is “about 700 mg/L”.

Q: What about the “maximum cell concentration (VCD)” value ([2]; 10 mM sugar, 315 mOsm/kg) of the same molecule?
A: Its value is 11.1±1.6 *10^6 cells/mL.

Q: What about the absolute harvest titer [2, 12] of the same molecule?
A: Its absolute harvest titer is “about 2100 mg/L”.

Q: What about the specific productivity [2, 12] of the same molecule?
A: Its specific productivity is “about 21 pg/cell/day”.

Q: What about the “increase of High Mannose (HM) species of mAb2 with respect to control” value ([2]; 100 mM sugar, 315 mOsm/kg) of the same molecule?
A: The value was 6.0%.

Q: What about the “maximum VCD (lowest of the conditions)” value ([2]; 127.5 mM sugar, 315 mOsm/kg) of the same molecule?
A: The value was 6.9±1.1 *10^6 cells/mL.

Q: And the “increase of High Mannose (HM) species of mAb2 with respect to control” value ([2]; 127.5 mM sugar, 315 mOsm/kg)?
A: Its value is 9.1%.

Q: What about the specific productivity [2, 11] of the same molecule?
A: The specific productivity was “about 24 pg/cell/day”.

Q: What about the “change of fucosylated species of mAb2 with higher sugar concentration” value ([2]; 315 mOsm/kg) of the same molecule?
A: Its value is “decrease”.

Q: And the “change of galactosylated, HM and non-fucosylated species of mAb2 with higher sugar concentration” value ([2]; 315 mOsm/kg)?
A: Its value is “increase”.

Q: And the “increase of HM for mAb2 (overall conclusion)” value [2]?
A: The value was 9%.

Q: And the “production of antibodies with respect to control” value ([2]; sugar supplementation, 315 mOsm/kg, working day 14)?
A: Its value is “decrease”.
